According to PubChem BioAssay AID330 (DTP/NCI, 2004):
Values joined by “and” are separate entries in the source; they are usually repeats but may differ in a detail not shown here. Equal entries are not always repeated. Toxic doses and inconclusive results are not listed. The calls were made as follows: active = survival T/C of 150% or more; inactive = T/C below 125% in these data.

System: P388 leukemia ip, CD2F1 mice, survival T/C
Assay: NCI In Vivo Anticancer Drug Screen. Data for tumor model P388 Leukemia (intraperitoneal) in CD2F1 (CDF1) mice
Conditions: endpoint: median survival time, higher = longer survival
Method in brief: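 Mice carrying the transplanted tumor received test compound or vehicle. Survival was recorded in each group, and the value is the treated-group measurement divided by that of the vehicle-treated control group.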

[1] = dose: 50.0 mg/kg/injection, schedule: Q01DX005 (ip), vehicle: saline with Tween-80
[2] = dose: 100.0 mg/kg/injection, schedule: Q01DX005 (ip), vehicle: saline with Tween-80
[3] = dose: 200.0 mg/kg/injection, schedule: Q01DX005 (ip), vehicle: saline with Tween-80
[4] = dose: 50.0 mg/kg/injection, schedule: Q01DX009 (ip), vehicle: Klucel (hydroxypropylcellulose) (HPC)
[5] = dose: 100.0 mg/kg/injection, schedule: Q01DX009 (ip), vehicle: Klucel (hydroxypropylcellulose) (HPC)
[6] = dose: 200.0 mg/kg/injection, schedule: Q01DX009 (ip), vehicle: Klucel (hydroxypropylcellulose) (HPC)
[7] = dose: 60.0 mg/kg/injection, schedule: Q01DX005 (ip), vehicle: saline with Tween-80
[8] = dose: 120.0 mg/kg/injection, schedule: Q01DX005 (ip), vehicle: saline with Tween-80
[9] = dose: 50.0 mg/kg/injection, schedule: Q01DX009 (ip), vehicle: saline
[10] = dose: 100.0 mg/kg/injection, schedule: Q01DX009 (ip), vehicle: saline
[11] = dose: 200.0 mg/kg/injection, schedule: Q01DX009 (ip), vehicle: saline
[12] = dose: 6.25 mg/kg/injection, schedule: Q01DX009 (ip), vehicle: Klucel (hydroxypropylcellulose) (HPC)
[13] = dose: 12.5 mg/kg/injection, schedule: Q01DX009 (ip), vehicle: Klucel (hydroxypropylcellulose) (HPC)

Measured: T/C

Cc1cc2ncnn2cn1
inactive: dose: 100.0 mg/kg/injection, schedule: Q04DX003 (ip), vehicle: saline with Tween-80 99 % of control | dose: 200.0 mg/kg/injection, schedule: Q04DX003 (ip), vehicle: saline with Tween-80 99 % of control | dose: 400.0 mg/kg/injection, schedule: Q04DX003 (ip), vehicle: saline with Tween-80 93 % of control

c1ccc(-c2cnc3nc4[nH]c5ccccc5c4nn23)cc1
inactive: [1] 98 % of control | [2] 92 % of control | [3] 98 % of control

CN(O)C(=O)/C=C/c1ccccc1
inactive: dose: 50.0 mg/kg/injection, schedule: Q01DX009 (ip), vehicle: distilled water + Tween-80 104 % of control | dose: 100.0 mg/kg/injection, schedule: Q01DX009 (ip), vehicle: distilled water + Tween-80 104 % of control | dose: 200.0 mg/kg/injection, schedule: Q01DX009 (ip), vehicle: distilled water + Tween-80 110 % of control

Clc1ccc(CN2Cc3ccc4cccnc4c3OC2c2ccccn2)cc1Cl (configuration not stated)
inactive: [4] 100 % of control | [5] 101 % of control | [6] 101 % of control

COc1ccc(C2c3cc4c(cc3OC(C)(N3CCCC3)C2C)OCO4)c(OC)c1OC (configuration not stated)
inactive: [7] 100 % of control | [8] 95 % of control | dose: 240.0 mg/kg/injection, schedule: Q01DX005 (ip), vehicle: saline with Tween-80 96 % of control

O=C(NCCCNC(=O)C12CC3CC(CC(C3)C1)C2)C12CC3CC(CC(C3)C1)C2
inactive: [1] 98 % of control | [2] 92 % of control | [3] 100 % of control

NNC(=O)C(=O)Nc1nccs1
inactive: [7] 94 % of control | [8] 95 % of control

O=C(/C=C/c1ccc(Cl)cc1)c1ccccc1O
inactive: dose: 25.0 mg/kg/injection, schedule: Q01DX009 (ip), vehicle: saline with Tween-80 98 % of control | dose: 50.0 mg/kg/injection, schedule: Q01DX009 (ip), vehicle: saline with Tween-80 103 % of control | dose: 100.0 mg/kg/injection, schedule: Q01DX009 (ip), vehicle: saline with Tween-80 107 % of control | dose: 200.0 mg/kg/injection, schedule: Q01DX009 (ip), vehicle: saline with Tween-80 100 % of control

O=c1oc(-c2ccc(Cl)cc2[N+](=O)[O-])nc2ccccc12
inactive: [9] 108 % of control | [10] 104 % of control | [11] 100 % of control

Cc1cc(Cl)cc2c1NC(=O)C2(O)C/C(=N/NC(=O)CC#N)c1cccc([N+](=O)[O-])c1 (configuration not stated)
inactive: [7] 93 % of control | [2] 103 % of control | [3] 101 % of control

CCCCCCCCCCCCCCCCSc1nc2ccc(N=Cc3ccccc3O)cc2s1
inactive: dose: 100.0 mg/kg/injection, schedule: Q04DX003 (ip), vehicle: Klucel (hydroxypropylcellulose) (HPC) 92 % of control | dose: 200.0 mg/kg/injection, schedule: Q04DX003 (ip), vehicle: Klucel (hydroxypropylcellulose) (HPC) 90 % of control | dose: 400.0 mg/kg/injection, schedule: Q04DX003 (ip), vehicle: Klucel (hydroxypropylcellulose) (HPC) 91 % of control

N#CC(COC(=O)c1ccccc1)OC(=O)c1ccccc1 (configuration not stated)
inactive: [1] 91 % of control | [2] 95 % of control | [3] 86 % of control

O=C1NC(=O)C2NC(O)=C(O)NC2N1 (configuration not stated)
inactive: dose: 12.5 mg/kg/injection, schedule: Q01DX001 (ip), vehicle: saline with Tween-80 102 % of control | dose: 25.0 mg/kg/injection, schedule: Q01DX001 (ip), vehicle: saline with Tween-80 108 % of control

CC1Cc2nc3ccccc3c(=O)n2O1 (configuration not stated)
inactive: [4] 103 % of control | [5] 107 % of control | [6] 103 % of control

O=C(Oc1ccc[nH]c1=O)c1cc([N+](=O)[O-])cc([N+](=O)[O-])c1
inactive: dose: 12.5 mg/kg/injection, schedule: Q01DX009 (ip), vehicle: saline 99 % of control and 100 % of control | dose: 25.0 mg/kg/injection, schedule: Q01DX009 (ip), vehicle: saline 98 % of control and 107 % of control | [9] 99 % of control and 103 % of control | [10] 100 % of control | [11] 98 % of control and 101 % of control | dose: 400.0 mg/kg/injection, schedule: Q01DX009 (ip), vehicle: saline 100 % of control and 109 % of control

S=c1nc(-c2ccccn2)c(-c2ccccn2)n[nH]1
inactive: [1] 116 % of control and 117 % of control | [2] 121 % of control | [3] 119 % of control and 120 % of control | dose: 400.0 mg/kg/injection, schedule: Q01DX005 (ip), vehicle: saline with Tween-80 120 % of control

COC(=O)Nc1nc2ccc(C(=O)OCC(C)C)cc2[nH]1
inactive: dose: 100.0 mg/kg/injection, schedule: Q04DX002 (ip), vehicle: saline with Tween-80 98 % of control | dose: 200.0 mg/kg/injection, schedule: Q04DX002 (ip), vehicle: saline with Tween-80 90 % of control

Cc1nc(N)c2nonc2n1
inactive: dose: 25.0 mg/kg/injection, schedule: Q04DX003 (ip), vehicle: suspension in saline 98 % of control | dose: 50.0 mg/kg/injection, schedule: Q04DX003 (ip), vehicle: suspension in saline 103 % of control | dose: 100.0 mg/kg/injection, schedule: Q04DX003 (ip), vehicle: suspension in saline 94 % of control | dose: 200.0 mg/kg/injection, schedule: Q04DX003 (ip), vehicle: suspension in saline 95 % of control

COc1cc2c[n+](C)c3c4cc(OC)c(OC)cc4c(OCc4ccccc4)cc3c2cc1OC
inactive: dose: 6.25 mg/kg/injection, schedule: Q01DX005 (ip), vehicle: saline with Tween-80 123 % of control and 124 % of control | dose: 12.5 mg/kg/injection, schedule: Q01DX005 (ip), vehicle: saline with Tween-80 124 % of control

c1ccc(-n2nc3c(c2-c2ccncc2)CCCc2ccccc2-3)cc1
inactive: dose: 12.5 mg/kg/injection, schedule: Q01DX009 (ip), vehicle: other 96 % of control | dose: 25.0 mg/kg/injection, schedule: Q01DX009 (ip), vehicle: other 98 % of control | dose: 50.0 mg/kg/injection, schedule: Q01DX009 (ip), vehicle: other 120 % of control | dose: 100.0 mg/kg/injection, schedule: Q01DX009 (ip), vehicle: other 110 % of control | dose: 200.0 mg/kg/injection, schedule: Q01DX009 (ip), vehicle: other 96 % of control

CCOC(CSc1ncnc2nc[nH]c12)OCC
inactive: [9] 100 % of control | [10] 96 % of control | [11] 112 % of control

N#CN=[N+]([O-])c1ccccc1Cl
inactive: dose: 3.12 mg/kg/injection, schedule: Q01DX009 (ip), vehicle: Klucel (hydroxypropylcellulose) (HPC) 100 % of control | [12] 107 % of control | dose: 6.25 mg/kg/injection, schedule: Q04DX003 (ip), vehicle: Klucel (hydroxypropylcellulose) (HPC) 91 % of control | [13] 109 % of control | dose: 12.5 mg/kg/injection, schedule: Q04DX003 (ip), vehicle: Klucel (hydroxypropylcellulose) (HPC) 100 % of control | dose: 25.0 mg/kg/injection, schedule: Q04DX003 (ip), vehicle: Klucel (hydroxypropylcellulose) (HPC) 91 % of control

c1ccc(-c2nn(-c3ccccc3)[n+](-c3ccccc3-c3ccccc3)n2)cc1
inactive: dose: 5.0 mg/kg/injection, schedule: Q01DX009 (ip), vehicle: saline 109 % of control and 114 % of control | dose: 10.0 mg/kg/injection, schedule: Q01DX009 (ip), vehicle: saline 120 % of control | dose: 20.0 mg/kg/injection, schedule: Q01DX009 (ip), vehicle: saline 121 % of control

CC(C)CC(N)C(=O)O (configuration not stated)
inactive: [4] 105 % of control | [5] 105 % of control | [6] 94 % of control

CN(C)CCC=C1c2ccccc2CCc2ccccc21
inactive: dose: 12.5 mg/kg/injection, schedule: Q01DX005 (ip), vehicle: saline 101 % of control | dose: 25.0 mg/kg/injection, schedule: Q01DX005 (ip), vehicle: saline 103 % of control | dose: 50.0 mg/kg/injection, schedule: Q01DX005 (ip), vehicle: saline 109 % of control and 116 % of control

CCCCNc1cc(C(F)(F)F)cc(N)c1N
inactive: dose: 50.0 mg/kg/injection, schedule: Q01DX005 (ip), vehicle: saline + Tween-80 + alcohol 105 % of control | dose: 100.0 mg/kg/injection, schedule: Q01DX005 (ip), vehicle: saline + Tween-80 + alcohol 108 % of control | dose: 200.0 mg/kg/injection, schedule: Q01DX005 (ip), vehicle: saline + Tween-80 + alcohol 109 % of control

C=C1CC(O)C2C(=C)C(=O)OC2C2C(C)C(=O)CC12 (configuration not stated)
inactive: [12] 112 % of control | [13] 107 % of control | dose: 25.0 mg/kg/injection, schedule: Q01DX009 (ip), vehicle: Klucel (hydroxypropylcellulose) (HPC) 115 % of control | [4] 116 % of control

CC(=O)OC(C(=O)C=[N+]=[N-])C(OC(C)=O)C(OC(C)=O)C(=O)C=[N+]=[N-] (configuration not stated)
inactive: [4] 99 % of control | [5] 113 % of control | [6] 108 % of control
